The source of these data is patent US8673910B2, “Proteasome inhibitors for selectively inducing apoptosis in cancer cells” (H. Lee Moffitt Cancer Center and Research Institute, priority 2008, dated 2014).

Data set [1] concerns the target T1, CT-L activity of the proteasome in MCF-7 human breast cancer cells (Homo sapiens, UniProt P20618+P28074).
T1 construct: endogenous in cells; host or cells: MCF-7
Nature of the data set: Proteolytic activity in cell lysates of treated intact MCF-7 cells. It counts as cell-based. Particulars: intact cells treated 16 h, CT-L measured in cell lysates; two determinations where two values. Here is the method:
Human MCF-7 breast cancer cells were cultured in DMEM medium containing 10% fetal calf serum (FCS) and 100 units/ml of penicillin and 100 μg/ml of streptomycin. Cells were maintained at 37° C. in a humidified incubator in an atmosphere of 5% CO2. Cells were treated with different concentrations of PI-083, YG1-080, YG1-075, HL2-090-2, HL2-090-4, HL2-090-6, and HL2-090-9 or vehicle control (DMSO) for 16 h.
Intact cells were treated with compounds and lysates prepared as described above. Cell lysates (5 μg) was incubated with 20 μM Suc-Leu-Leu-Val-Tyr-AMC for the CT-L activity for 1 h at 37° C. in 100 μl of assay buffer (50 mM Tris-HCl, pH 7.6). After incubation, production of hydrolyzed 7-amido-4-methyl-coumarin (AMC) groups was measured using a WALLAC Victor^2 1420 Multilabel Counter with an excitation filter of 355 nm and an emission filter of 460 nm (Perkin Elmer Life Sciences, Turku, Finland).

Data set [2] concerns the target T2, chymotrypsin-like (CT-L) activity of purified 20S rabbit proteasome (Oryctolagus cuniculus, UniProt G1T4Q9).
T2 sequence (G1T4Q9 1-263): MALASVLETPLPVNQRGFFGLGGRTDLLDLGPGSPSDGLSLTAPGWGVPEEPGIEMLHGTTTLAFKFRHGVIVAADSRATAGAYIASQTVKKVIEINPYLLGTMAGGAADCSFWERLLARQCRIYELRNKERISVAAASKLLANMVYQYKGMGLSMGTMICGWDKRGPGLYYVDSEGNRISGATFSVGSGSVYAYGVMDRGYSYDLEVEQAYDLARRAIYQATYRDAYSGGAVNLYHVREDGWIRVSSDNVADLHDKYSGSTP
Nature of the data set: Proteolytic activity of purified 20S proteasome, fluorogenic substrate Suc-Leu-Leu-Val-Tyr-AMC. It counts as biochemical. The conditions noted are these: purified rabbit 20S proteasome; for IC50: PI-083 derivatives (Table 7, naphthoquinone library), read-out: IC50 (μM) Chymotrypsin-like activity.
Procedure: The inhibitory activity of the compounds was calculated based on vehicle control). This technique monitors the hydrolytic release of a coumarin species from a synthetic peptide substrate.
The assay was conducted by using a fluorogenic peptide as substrate to test synthesized compounds for inhibitory activity against the chymotrypsin-like activity of the purified rabbit 20S proteasome. Briefly, 70 ng of purified 20S proteasome was incubated with 20 μM Suc-Leu-Leu-Val-Tyr-AMC for 1 hour at 37° C. in 100 μl of assay buffer (50 mM Tris-HCl, pH 7.6) with or without inhibitors. After incubation, production of hydrolyzed 7-amido-4-methyl-coumarin (AMC) was measured using a WALLAC Victor2 1420 Multilabel Counter with an excitation filter of 355 nm and an emission filter of 460 nm (Perkin Elmer Life Sciences, Turku, Finland). The inhibitory activity of the compounds was calculated based on vehicle control.

The test system of data set [3] is MCF-7 breast cancer cells. Nature of the data set: MTT metabolism assay. It counts as cell-based, human. The conditions noted are these: Homo sapiens, MCF7, 72 h, MCF-7, 72 h (Table 6); read-out: IC50 for cell viability measured by MTT assay in MCF-7 human breast cancer cells. Here is the method:
Cells were plated in 96-well plates in 100 μl medium and allowed to attach overnight. […] Media was aspirated after 24 or 72 hours and replaced with 100 μl complete media containing 1 mg/ml MTT and incubated for three hours at 37° C. in 5% CO2 humidified incubator. Media was then aspirated and DMSO was added. Cells were incubated for 10 min at room temperature while shaking, and the absorbance was determined at 540 nm using a μQuant spectrophotometric plate reader (Bio-TEK, Winooski, Vt.).
Cells were plated in 96-well plates in 100 μl medium and allowed to attach overnight. Cells were then incubated for 72 h with varying concentrations of PI-083, YG1-080, YG1-075, HL2-090-2, HL2-090-4, HL2-090-6, and HL2-090-9 or vehicle control (DMSO). Media was aspirated and replaced with 100 μl complete media containing 1 mg/ml MTT and incubated for three hours at 37° C. in 5% CO2 humidified incubator. Media was then aspirated and DMSO was added. Cells were incubated for 10 min at room temperature while shaking, and the absorbance was determined at 540 nm using a μQuant spectrophotometric plate reader (Bio-TEK, Winooski, Vt.).

Each structure is given as a SMILES string. Where “and” joins values, the source holds several entries; their conditions need not be identical. Equal values may be shown once.

With `Cc1noc(NS(=O)(=O)c2ccc(NC3=C(Cl)C(=O)c4ccccc4C3=O)cc2)c1C` [Compound 2h, 4-(3-chloro-1,4-dioxo-1,4-dihydronaphthalen-2-ylamino)-N-(3,4-dimethylisoxazol-yl)-benzenesulfonamide], the melting point fell in the range of 208 to 210 °C. This compound also gave an IC50 in data set [1] greater than 10 µM. In addition, the IC50 in data set [2] came to 6.4 µM.

As for `O=C1C(Cl)=C(Nc2ccc(S(=O)(=O)Nc3nccs3)cc2)C(=O)c2ccccc21` [Compound 2s, 4-(3-chloro-1,4-dioxo-1,4-dihydronaphthalen-2-ylamino)-N-(thiazol-2-yl)benzene-sulfonamide], the melting point lay within 286 to 288 °C. This compound also had an IC50 in data set [1] greater than 10 µM. Also, the half-inhibitory concentration (IC50) in data set [2] was 3.3 µM.

The compound `NS(=O)(=O)c1ccc(NC2=C(Cl)C(=O)c3ccccc3C2=O)cc1` [Compound 2t, 4-(3-chloro-1,4-dioxo-1,4-dihydronaphthalen-2-ylamino)benzenesulfonamide] showed a melting point greater than 300 °C. Moreover, the concentration for half-maximal inhibition (IC50) in data set [3] came to 2.41 ± 0.19 µM. Further, the IC50 in data set [1] is 5.1 µM and 4.7 µM. Further, in data set [2], the 50% inhibitory concentration (IC50) was 1.1 µM and the “proteasome (chymotrypsin-like) inhibitory activity, in words” value is listed as “equally as active as PI-083”.

Broadly, the IC50 is the midpoint of a concentration-inhibition curve. A word on the melting point: it is the temperature, or range, at which the solid turns liquid.
